In ChEMBL document CHEMBL3045932 (J Pestic Sci, 2005):
One block for each molecule: values may come before it. Calls of active or inactive are those of the source. The calls are words filed in the database; no cut-off is given here.

What was measured:
Echinochloa oryzicola [1] = experiment: Herbicidal activity against 2.5-leaf stage of Echinochloa oryzicola assessed as growth inhibition at 2.5 g/a by greenhouse test in presence of fenitrothion; type: functional, organism-based
Echinochloa oryzicola [2] = experiment: Herbicidal activity against 2.5-leaf stage of Echinochloa oryzicola assessed as growth inhibition at 2.5 g/a by greenhouse test in presence of triphenyl phosphate; type: functional, organism-based
Oryza sativa [3] = experiment: Toxicity in Oryza sativa (rice) assessed as shoot length after 7 days by hydroponics test; type: organism-based; details: 168 h, read-out: I50
Echinochloa oryzicola [4] = experiment: Herbicidal activity against Echinochloa oryzicola assessed as shoot length after 7 days by hydroponics test; type: functional, organism-based; details: 168 h, read-out: I50
Echinochloa oryzicola [5] = experiment: Drug metabolism in 2.5-leaf stage Echinochloa oryzicola assessed as 1-[1-(3,5-dichlorophenyl)-1-methylethyl]-4-methyl-3-phenyl-3-pyrrolin-2-one level per gram of fresh weight at 25 nM after 6 days; type: ADME, organism-based; details: in vivo, 144 h, 0.025 µM
[6] = Drug metabolism assessed as parent compound level in presence of porcine esterase and 10 uM of triphenyl phosphate; type: physicochemical; details: pig, isolated protein
[7] = Drug metabolism assessed as formation of 1-[1-(3,5-dichlorophenyl)-1-methylethyl]-4-methyl-3-phenyl-3-pyrrolin-2-one in presence of porcine esterase and 10 uM triphenyl phosphate; type: physicochemical; details: pig, isolated protein
[8] = Drug metabolism assessed as parent compound level in presence of porcine esterase and 1 uM of triphenyl phosphate; type: physicochemical; details: pig, isolated protein
[9] = Drug metabolism assessed as formation of 1-[1-(3,5-dichlorophenyl)-1-methylethyl]-4-methyl-3-phenyl-3-pyrrolin-2-one in presence of porcine esterase and 1 uM triphenyl phosphate; type: physicochemical; details: pig, isolated protein
[10] = Drug metabolism assessed as parent compound level in presence of porcine esterase; type: physicochemical; details: pig, isolated protein
[11] = Drug metabolism assessed as formation of 1-[1-(3,5-dichlorophenyl)-1-methylethyl]-4-methyl-3-phenyl-3-pyrrolin-2-one in presence of porcine esterase; type: physicochemical; details: pig, isolated protein
Oryza sativa [12] = experiment: Toxicity in zero transplanted Oryza sativa (rice) assessed as growth inhibition at 5 to 10 g/a by greenhouse test in presence of fenitrothion; type: organism-based; details: in vivo
Oryza sativa [13] = experiment: Toxicity in zero transplanted Oryza sativa (rice) assessed as growth inhibition at 5 to 10 g/a by greenhouse test in presence of triphenyl phosphate; type: organism-based; details: in vivo
Oryza sativa [14] = experiment: Toxicity in zero transplanted Oryza sativa (rice) assessed as growth inhibition at 5 to 10 g/a by greenhouse test; type: organism-based; details: in vivo
Oryza sativa [15] = experiment: Toxicity in 2 cm transplanted Oryza sativa (rice) assessed as growth inhibition at 10 g/a by greenhouse test; type: organism-based; details: in vivo
Echinochloa oryzicola [16] = experiment: Herbicidal activity against 2.5-leaf stage of Echinochloa oryzicola assessed as growth inhibition at 2.5 g/a by greenhouse test; type: functional; details: read-out: GI
Echinochloa oryzicola [17] = experiment: Herbicidal activity against Echinochloa oryzicola assessed as shoot length after 7 days by hydroponics test in presence of 1-aminobenzotriazole; type: functional, organism-based
Echinochloa oryzicola [18] = experiment: Herbicidal activity against Echinochloa oryzicola assessed as shoot length after 7 days by hydroponics test in presence of tributylphosphate; type: functional, organism-based
Echinochloa oryzicola [19] = experiment: Herbicidal activity against Echinochloa oryzicola assessed as shoot length after 7 days by hydroponics test in presence of fenitrothion; type: functional, organism-based
Echinochloa oryzicola [20] = experiment: Herbicidal activity against Echinochloa oryzicola assessed as shoot length after 7 days by hydroponics test in presence of triphenyl phosphate; type: functional, organism-based
Oryza sativa [21] = experiment: Drug metabolism in 2.5-leaf stage Oryza sativa (rice) assessed as 1-[1-(3,5-dichlorophenyl)-1-methylethyl]-4-methyl-3-phenyl-3-pyrrolin-2-one level per gram of fresh weight at 25 nM after 6 days; type: ADME, organism-based; details: in vivo, 144 h, 0.025 µM

Structure (SMILES): CC1=C(c2ccccc2)C(=O)N(C(C)(C)c2cc(Cl)cc(Cl)c2)C1
growth inhibition (GI) (Echinochloa oryzicola [1]): Active
growth inhibition (GI) (Echinochloa oryzicola [2]): Active
IC50 (Oryza sativa [3]): 115 nM
IC50 (Echinochloa oryzicola [4]): 12 nM

Drug metabolism (Echinochloa oryzicola [5]): 1.88 nM
Drug metabolism [6]: 4.26 µM
Drug metabolism [7]: 0.66 µM
Drug metabolism [8]: 2.5 µM
Drug metabolism [9]: 2.69 µM
Drug metabolism [10]: 1.97 µM
Drug metabolism [11]: 3 µM
Drug metabolism (Oryza sativa [21]): 0.47 nM
Structure (SMILES): COC(=O)C1(c2ccccc2)C(=O)N(C(C)(C)c2cc(Cl)cc(Cl)c2)C=C1C (stereo not given)
Activity (Oryza sativa [12]): Non-toxic
Activity (Oryza sativa [13]): Non-toxic
Activity (Oryza sativa [14]): Toxic
Activity (Oryza sativa [15]): Non-toxic
growth inhibition (GI) (Echinochloa oryzicola [1]): inactive
growth inhibition (GI) (Echinochloa oryzicola [2]): inactive
inhibition of growth at 250 g/ha (Echinochloa oryzicola [16]): 96%
Activity (Echinochloa oryzicola [17]): Active
Activity (Echinochloa oryzicola [18]): Active
Activity (Echinochloa oryzicola [19]): inactive
Activity (Echinochloa oryzicola [20]): inactive
IC50 (Oryza sativa [3]): 2630 nM
IC50 (Echinochloa oryzicola [4]): 25 nM
